Values joined by “and” are separate entries in the source; they are usually repeats but may differ in a detail not shown here. Equal values may be shown once.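 Following 48 hours of exposure in 96-well plates, responses at five concentrations were used to interpolate endpoints linearly. GI50 marks 50% less growth.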 Active and inactive are the calls of the source. No stated cut-off is given here; in the data, active = GI50 up to about 1.1 µM and inactive = higher.
Experiments:
Test in all cases: DTP human tumour cell line panel, 48 h
[1] = test system: MOLT-4
[2] = test system: HL-60
[3] = test system: OVCAR-3
[4] = test system: SK-OV-3
[5] = test system: HT-29
[6] = test system: IGROV-1
[7] = test system: HCT-116
[8] = test system: NCI-H522
[9] = test system: OVCAR-4
[10] = test system: EKVX
[11] = test system: CAKI-1
[12] = test system: XF498
[13] = test system: DMS-273
[14] = test system: SNB-78
[15] = test system: NCI-H226
[16] = test system: UACC-257
[17] = test system: A498
[18] = test system: SK-MEL-2
[19] = test system: LXFL 529
[20] = test system: RPMI-8226
[21] = test system: SW-620
[22] = test system: HCC 2998
[23] = test system: ACHN
[24] = test system: NCI-H460
[25] = test system: OVCAR-5
[26] = test system: SF-295
[27] = test system: RXF 393
[28] = test system: M19-MEL
[29] = test system: SK-MEL-28
[30] = test system: DMS-114
[31] = test system: TK-10
[32] = test system: Malme-3M
[33] = test system: CCRF-CEM
[34] = test system: SNB-75
[35] = test system: K562
[36] = test system: NCI-H23
[37] = test system: COLO 205
[38] = test system: SF-268
[39] = test system: SF-539
[40] = test system: HOP-92
[41] = test system: SR
[42] = test system: DLD-1
[43] = test system: HOP-62
[44] = test system: UO-31
[45] = test system: M14
[46] = test system: 786-0
[47] = test system: SN12C
[48] = test system: UACC-62
[49] = test system: A549
[50] = test system: SNB-19
[51] = test system: SK-MEL-5
[52] = test system: HCT-15
[53] = test system: KM-20L2
[54] = test system: OVCAR-8
[55] = test system: U-251
[56] = test system: KM12

Compound: CC(=O)OCC1OC(n2c(-c3ccccc3)cc(-c3ccco3)c(C#N)c2=O)C(OC(C)=O)C(OC(C)=O)C1OC(C)=O (stereo unspecified)
- GI50 [1]: > 22.8 µM (inactive) and 14.8 µM (inactive)
- GI50 [2]: 3.84 µM (inactive)
- GI50 [3]: 33.3 µM (inactive) and > 31.6 µM (inactive)
- GI50 [4]: > 100 µM (inactive) and 98.6 µM (inactive)
- GI50 [5]: > 100 µM (inactive)
- GI50 [6]: > 31.6 µM (inactive) and 36.8 µM (inactive)
- GI50 [7]: 7.46 µM (inactive) and 5.86 µM (inactive)
- GI50 [8]: 29.5 µM (inactive) and 20.7 µM (inactive)
- GI50 [9]: > 56.6 µM (inactive) and 74.3 µM (inactive)
- GI50 [10]: > 100 µM (inactive)
- GI50 [11]: 52.5 µM (inactive)
- GI50 [12]: 16.2 µM (inactive)
- GI50 [13]: 25.8 µM (inactive) and 36.3 µM (inactive)
- GI50 [14]: 45.7 µM (inactive) and 25.9 µM (inactive)
- GI50 [15]: > 100 µM (inactive)
- GI50 [16]: > 89.1 µM (inactive) and 75.7 µM (inactive)
- GI50 [17]: > 100 µM (inactive) and 68.1 µM (inactive)
- GI50 [18]: 14.6 µM (inactive) and 28.1 µM (inactive)
- GI50 [19]: 12.7 µM (inactive) and > 10 µM (inactive)
- GI50 [20]: 8.38 µM (inactive)
- GI50 [21]: > 31.6 µM (inactive) and 49.3 µM (inactive)
- GI50 [22]: > 100 µM (inactive) and 52.4 µM (inactive)
- GI50 [23]: 76.7 µM (inactive) and 49.7 µM (inactive)
- GI50 [24]: 57.4 µM (inactive)
- GI50 [25]: > 100 µM (inactive)
- GI50 [26]: 39.9 µM (inactive) and 57.5 µM (inactive)
- GI50 [27]: > 32.1 µM (inactive) and 19.3 µM (inactive)
- GI50 [28]: 54.6 µM (inactive) and 30.9 µM (inactive)
- GI50 [29]: 22.3 µM (inactive) and 39.3 µM (inactive)
- GI50 [30]: 28.8 µM (inactive) and 30.5 µM (inactive)
- GI50 [31]: > 31.6 µM (inactive) and 27.2 µM (inactive)

Compound: CCNC1CC(n2cc(C)c(=O)[nH]c2=O)OC1CO (stereo unspecified)
- GI50 [32]: > 100 µM (inactive)
- GI50 [33]: > 100 µM (inactive)
- GI50 [34]: > 100 µM (inactive)
- GI50 [1]: > 100 µM (inactive)
- GI50 [35]: > 100 µM (inactive)
- GI50 [36]: > 100 µM (inactive)
- GI50 [2]: > 100 µM (inactive)
- GI50 [37]: > 100 µM (inactive)
- GI50 [38]: > 100 µM (inactive)
- GI50 [39]: > 100 µM (inactive)
- GI50 [40]: > 100 µM (inactive)
- GI50 [4]: > 100 µM (inactive)
- GI50 [6]: > 100 µM (inactive)
- GI50 [7]: > 100 µM (inactive)
- GI50 [8]: > 100 µM (inactive)
- GI50 [41]: > 100 µM (inactive)
- GI50 [9]: > 100 µM (inactive)
- GI50 [42]: > 100 µM (inactive)
- GI50 [11]: > 100 µM (inactive)
- GI50 [43]: > 100 µM (inactive)
- GI50 [12]: > 100 µM (inactive)
- GI50 [44]: > 100 µM (inactive)
- GI50 [13]: > 100 µM (inactive)
- GI50 [14]: > 100 µM (inactive)
- GI50 [45]: > 100 µM (inactive)
- GI50 [15]: > 100 µM (inactive)
- GI50 [17]: > 100 µM (inactive)
- GI50 [18]: > 100 µM (inactive)
- GI50 [19]: > 100 µM (inactive)
- GI50 [20]: > 100 µM (inactive)
- GI50 [46]: > 100 µM (inactive)
- GI50 [47]: > 100 µM (inactive)
- GI50 [22]: > 100 µM (inactive)
- GI50 [24]: > 100 µM (inactive)
- GI50 [28]: > 100 µM (inactive)
- GI50 [29]: > 100 µM (inactive)
- GI50 [30]: > 100 µM (inactive)
- GI50 [48]: > 100 µM (inactive)

Compound: O=C1CSC(C(/N=N/c2ccc(Cl)cc2)c2nc3ccccc3[nH]2)=N1 (stereo unspecified)
- GI50 [49]: > 100 µM (inactive)
- GI50 [32]: > 100 µM (inactive)
- GI50 [33]: 10.7 µM (inactive)
- GI50 [50]: 50.6 µM (inactive)
- GI50 [34]: 25.6 µM (inactive)
- GI50 [1]: 6.79 µM (inactive)
- GI50 [35]: 61.8 µM (inactive)
- GI50 [36]: 63 µM (inactive)
- GI50 [2]: 51.6 µM (inactive)
- GI50 [3]: 36.9 µM (inactive)
- GI50 [37]: > 100 µM (inactive)
- GI50 [38]: > 100 µM (inactive)
- GI50 [39]: 23.4 µM (inactive)
- GI50 [40]: 54 µM (inactive)
- GI50 [4]: 55 µM (inactive)
- GI50 [5]: > 100 µM (inactive)
- GI50 [7]: > 100 µM (inactive)
- GI50 [8]: 25.9 µM (inactive)
- GI50 [51]: 25.6 µM (inactive)
- GI50 [41]: 76.4 µM (inactive)
- GI50 [9]: > 100 µM (inactive)
- GI50 [42]: 65.5 µM (inactive)
- GI50 [10]: 91.2 µM (inactive)
- GI50 [11]: > 100 µM (inactive)
- GI50 [43]: 35.2 µM (inactive)
- GI50 [12]: 17.8 µM (inactive)
- GI50 [44]: 39.1 µM (inactive)
- GI50 [52]: > 100 µM
- GI50 [13]: 60.4 µM (inactive)
- GI50 [53]: > 100 µM (inactive)
- GI50 [54]: 82.8 µM (inactive)
- GI50 [45]: > 100 µM (inactive)
- GI50 [15]: 0.0105 µM (active)
- GI50 [16]: > 100 µM (inactive)
- GI50 [17]: > 100 µM (inactive)
- GI50 [18]: 16 µM (inactive)
- GI50 [19]: 52.6 µM (inactive)
- GI50 [20]: > 100 µM (inactive)
- GI50 [21]: > 100 µM (inactive)
- GI50 [55]: 53.3 µM (inactive)
- GI50 [47]: > 100 µM (inactive)
- GI50 [56]: 45.8 µM (inactive)
- GI50 [22]: 25.6 µM (inactive)
- GI50 [23]: 28.7 µM (inactive)
- GI50 [24]: 33 µM (inactive)
- GI50 [25]: > 100 µM (inactive)
- GI50 [26]: 38.8 µM (inactive)
- GI50 [28]: 85.7 µM (inactive)
- GI50 [29]: 35.5 µM (inactive)
- GI50 [30]: 26.2 µM (inactive)
- GI50 [48]: > 100 µM (inactive)
- GI50 [31]: > 100 µM (inactive)

— ChEMBL document CHEMBL1201862, “PubChem BioAssay data set” (2004)
